Measurements reported in US10420341B2, “Herbicidal phenylpyrimidines” (BASF SE, priority 2015, dated 2019).

Columns and labels:
[1] = tested on: ECHCG; assay: greenhouse post-emergence herbicidal test; format: in vivo, Echinocloa crus-galli; settings: post-emergence method, scale from 0 to 100
Summary of the method: (§1)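 Greenhouse plants, grown to 3–15 cm, were treated post-emergence with emulsified or suspended compound and assessed over 2–4 weeks on a 0–100 damage scale.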

[2] = tested on: SETFA; assay: greenhouse pre-emergence herbicidal test; format: in vivo, Setaria faberi; settings: pre-emergence method, scale from 0 to 100
Description: (§2) The seeds of the test plants were sown separately for each species. For the pre-emergence treatment, the active ingredients, which had been suspended or emulsified in water, were applied directly after sowing by means of finely distributing nozzles. The containers were irrigated gently to promote germination and growth and subsequently covered with transparent plastic hoods until the plants had rooted. This cover caused uniform germination of the test plants, unless this had been impaired by the active ingredients. Depending on the species, the plants were kept at 10-25° C. or 20-35° C., respectively. The test period extended over 2 to 4 weeks. During this time, the plants were tended, and their response to the individual treatments was evaluated. Evaluation was carried out using a scale from 0 to 100. 100 means no emergence of the plants, or complete destruction of at least the aerial moieties, and 0 means no damage, or normal course of growth. […] The plants used in the greenhouse experiments were of the following species: [table]

[3] = tested on: ECHCG; assay: greenhouse pre-emergence herbicidal test; format: in vivo, Echinocloa crus-galli; settings: pre-emergence method, scale from 0 to 100
Summary of the method: (§3)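 Rated on a 0 (normal growth) to 100 (no emergence/total aerial kill) scale over a 2-4 week test period. Aqueous suspensions or emulsions applied by fine nozzles right after sowing, then plants held under hoods at 10-25 °C or 20-35 °C depending on species.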

[4] = tested on: ALOMY; assay: greenhouse post-emergence herbicidal test; format: in vivo, Alopercurus myosuroides; settings: post-emergence method, application rate 1000 g/ha, scale from 0 to 100
Summary of the method: as §1

[5] = tested on: SETVI; assay: greenhouse post-emergence herbicidal test; format: in vivo, Setaria viridis; settings: post-emergence method, scale from 0 to 100
Description: (§4) The seeds of the test plants were sown separately for each species. For the post-emergence treatment, the test plants were first grown to a height of 3 to 15 cm, depending on the plant habit, and only then treated with the active ingredients which had been suspended or emulsified in water. For this purpose, the test plants were either sown directly and grown in the same containers, or they were first grown separately as seedlings and transplanted into the test containers a few days prior to treatment. Depending on the species, the plants were kept at 10-25° C. or 20-35° C., respectively. The test period extended over 2 to 4 weeks. During this time, the plants were tended, and their response to the individual treatments was evaluated. Evaluation was carried out using a scale from 0 to 100. 100 means no emergence of the plants, or complete destruction of at least the aerial moieties, and 0 means no damage, or normal course of growth. […] The plants used in the greenhouse experiments were of the following species: [table]

[6] = tested on: AMARE; assay: greenhouse post-emergence herbicidal test; format: in vivo, Amaranthus retroflexus; settings: post-emergence method, scale from 0 to 100
Summary of the method: as §1

[7] = tested on: POLCO; assay: greenhouse post-emergence herbicidal test; format: in vivo, Polygonum convolvulus; settings: post-emergence method, application rate 500 g/ha, scale from 0 to 100
Summary of the method: as §1

[8] = tested on: APESV; assay: greenhouse pre-emergence herbicidal test; format: in vivo, Apera spica-venti; settings: pre-emergence method, scale from 0 to 100
Summary of the method: as §3

[9] = tested on: ABUTH; assay: greenhouse post-emergence herbicidal test; format: in vivo, Abutilon theophrasti; settings: post-emergence method, application rate 500 g/ha, scale from 0 to 100
Description: as §4

[10] = tested on: ALOMY; assay: greenhouse pre-emergence herbicidal test; format: in vivo, Alopercurus myosuroides; settings: pre-emergence method, application rate 500 g/ha, scale from 0 to 100
Description: as §2

[11] = tested on: AVEFA; assay: greenhouse post-emergence herbicidal test; format: in vivo, Avena fatua; settings: post-emergence method, application rate 1000 g/ha, scale from 0 to 100
Summary of the method: as §1

SMILES: COC(=O)c1nc(C(C)C)ncc1-c1ccccc1C [example 37]
- herbicidal activity against ECHCG ([1]; application rate 1000 g/ha): very good (a very good herbicidal activity is given at values of at least 85)
- herbicidal activity against SETFA ([2]; application rate 1000 g/ha): very good (a very good herbicidal activity is given at values of at least 85)
- herbicidal activity against ECHCG ([3]; application rate 1000 g/ha): very good (a very good herbicidal activity is given at values of at least 85)

SMILES: CCOC(=O)c1nc(OC)ncc1-c1cc(C)c(F)cc1C [example 64]
- herbicidal activity against ALOMY [4]: very good (a very good herbicidal activity is given at values of at least 85)
- herbicidal activity against SETVI ([5]; application rate 1000 g/ha): very good (a very good herbicidal activity is given at values of at least 85)
- herbicidal activity against AMARE ([6]; application rate 1000 g/ha): very good (a very good herbicidal activity is given at values of at least 85)

SMILES: CSc1ncc(-c2cc(C)ccc2Cl)c(C(=O)O)n1 [example 86]
- herbicidal activity against SETFA ([2]; application rate 1000 g/ha): good (A good herbicidal activity is given at values of at least 70)
- herbicidal activity against ECHCG ([3]; application rate 1000 g/ha): good (A good herbicidal activity is given at values of at least 70)

SMILES: CSc1ncc(-c2ccc(C#N)cc2C)c(C(=O)O)n1 [example 96]
- herbicidal activity against SETVI ([5]; application rate 2000 g/ha): very good (a very good herbicidal activity is given at values of at least 85)
- herbicidal activity against AMARE ([6]; application rate 2000 g/ha): very good (a very good herbicidal activity is given at values of at least 85)

SMILES: CSc1ncc(-c2ccc(C(F)(F)F)cc2C)c(C(=O)O)n1 [example 99]
- herbicidal activity against ECHCG ([1]; application rate 2000 g/ha): good (A good herbicidal activity is given at values of at least 70)
- herbicidal activity against SETVI ([5]; application rate 2000 g/ha): very good (a very good herbicidal activity is given at values of at least 85)
- herbicidal activity against AMARE ([6]; application rate 2000 g/ha): very good (a very good herbicidal activity is given at values of at least 85)

SMILES: COc1ccc(-c2cnc(SC)nc2C(=O)O)c(OC)c1 [example 109]
- herbicidal activity against SETVI ([5]; application rate 2000 g/ha): good (A good herbicidal activity is given at values of at least 70)

SMILES: CSc1ncc(-c2ccccc2S(C)(=O)=O)c(C(=O)O)n1 [example 114]
- herbicidal activity against SETFA ([2]; application rate 2000 g/ha): very good (a very good herbicidal activity is given at values of at least 85)

SMILES: Cc1ccccc1-c1cnc(S(C)(=O)=O)nc1C(=O)O [example 127]
- herbicidal activity against SETFA ([2]; application rate 2000 g/ha): good (A good herbicidal activity is given at values of at least 70)

SMILES: Cc1cc(F)c(-c2cnc(C3CC3)nc2C(=O)O)cc1Cl [example 137]
- herbicidal activity against SETVI ([5]; application rate 1000 g/ha): very good (a very good herbicidal activity is given at values of at least 85)
- herbicidal activity against AMARE ([6]; application rate 1000 g/ha): very good (a very good herbicidal activity is given at values of at least 85)

SMILES: Cc1ccc(Cl)c(-c2cnc(C3CC3)nc2C(=O)O)c1 [example 144]
- herbicidal activity against ECHCG ([3]; application rate 500 g/ha): very good (a very good herbicidal activity is given at values of at least 85)
- herbicidal activity against SETVI ([5]; application rate 500 g/ha): very good (a very good herbicidal activity is given at values of at least 85)
- herbicidal activity against POLCO [7]: very good (a very good herbicidal activity is given at values of at least 85)
- herbicidal activity against APESV ([8]; application rate 500 g/ha): very good (a very good herbicidal activity is given at values of at least 85)

SMILES: Cc1ccc(F)cc1-c1cnc(C2CC2)nc1C(=O)O [example 163]
- herbicidal activity against ECHCG ([1]; application rate 1000 g/ha): very good (a very good herbicidal activity is given at values of at least 85)
- herbicidal activity against ECHCG ([3]; application rate 1000 g/ha): very good (a very good herbicidal activity is given at values of at least 85)
- herbicidal activity against SETVI ([5]; application rate 1000 g/ha): very good (a very good herbicidal activity is given at values of at least 85)
- herbicidal activity against APESV ([8]; application rate 1000 g/ha): very good (a very good herbicidal activity is given at values of at least 85)

SMILES: COC(=O)c1nc(C2CC2)ncc1-c1c(Br)ccc(C)c1F [example 198]
- herbicidal activity against ECHCG ([3]; application rate 500 g/ha): very good (a very good herbicidal activity is given at values of at least 85)
- herbicidal activity against SETVI ([5]; application rate 500 g/ha): very good (a very good herbicidal activity is given at values of at least 85)
- herbicidal activity against APESV ([8]; application rate 500 g/ha): very good (a very good herbicidal activity is given at values of at least 85)
- herbicidal activity against ABUTH [9]: very good (a very good herbicidal activity is given at values of at least 85)

SMILES: COC(=O)c1nc(C2CC2)ncc1-c1cc(OC)ccc1Cl [example 206]
- herbicidal activity against ECHCG ([1]; application rate 500 g/ha): good (A good herbicidal activity is given at values of at least 70)
- herbicidal activity against ECHCG ([3]; application rate 500 g/ha): very good (a very good herbicidal activity is given at values of at least 85)
- herbicidal activity against SETVI ([5]; application rate 500 g/ha): good (A good herbicidal activity is given at values of at least 70)
- herbicidal activity against APESV ([8]; application rate 500 g/ha): very good (a very good herbicidal activity is given at values of at least 85)

SMILES: COC(=O)c1nc(C2CC2)ncc1-c1ccccc1[N+](=O)[O-] [example 223]
- herbicidal activity against ECHCG ([1]; application rate 1000 g/ha): very good (a very good herbicidal activity is given at values of at least 85)
- herbicidal activity against ECHCG ([3]; application rate 1000 g/ha): very good (a very good herbicidal activity is given at values of at least 85)
- herbicidal activity against SETVI ([5]; application rate 1000 g/ha): very good (a very good herbicidal activity is given at values of at least 85)
- herbicidal activity against APESV ([8]; application rate 1000 g/ha): very good (a very good herbicidal activity is given at values of at least 85)

SMILES: CCOC(=O)c1nc(C2CC2)ncc1-c1ccccc1Cl [example 251]
- herbicidal activity against ALOMY [10]: very good (a very good herbicidal activity is given at values of at least 85)
- herbicidal activity against APESV ([8]; application rate 500 g/ha): very good (a very good herbicidal activity is given at values of at least 85)
- herbicidal activity against ABUTH [9]: very good (a very good herbicidal activity is given at values of at least 85)
- herbicidal activity against AMARE ([6]; application rate 500 g/ha): very good (a very good herbicidal activity is given at values of at least 85)

SMILES: CNC(=O)c1nc(C2CC2)ncc1-c1ccccc1Cl [example 289]
- herbicidal activity against ECHCG ([3]; application rate 1000 g/ha): good (A good herbicidal activity is given at values of at least 70)
- herbicidal activity against SETVI ([5]; application rate 1000 g/ha): good (A good herbicidal activity is given at values of at least 70)
- herbicidal activity against APESV ([8]; application rate 1000 g/ha): very good (a very good herbicidal activity is given at values of at least 85)

SMILES: COC(=O)c1nc(C2CC2)ncc1-c1c(Cl)cccc1C(F)(F)F [example 302]
- herbicidal activity against ECHCG ([1]; application rate 1000 g/ha): very good (a very good herbicidal activity is given at values of at least 85)
- herbicidal activity against SETFA ([2]; application rate 1000 g/ha): very good (a very good herbicidal activity is given at values of at least 85)
- herbicidal activity against AMARE ([6]; application rate 1000 g/ha): very good (a very good herbicidal activity is given at values of at least 85)

SMILES: CCOc1cccc(Br)c1-c1cnc(C2CC2)nc1C(=O)O [example 303]
- herbicidal activity against ECHCG ([1]; application rate 1000 g/ha): very good (a very good herbicidal activity is given at values of at least 85)
- herbicidal activity against SETFA ([2]; application rate 1000 g/ha): very good (a very good herbicidal activity is given at values of at least 85)
- herbicidal activity against APESV ([8]; application rate 1000 g/ha): very good (a very good herbicidal activity is given at values of at least 85)

SMILES: O=C(O)c1nc(C2CC2)ncc1-c1c(F)cccc1I [example 317]
- herbicidal activity against ALOMY [4]: very good (a very good herbicidal activity is given at values of at least 85)
- herbicidal activity against ECHCG ([3]; application rate 1000 g/ha): very good (a very good herbicidal activity is given at values of at least 85)
- herbicidal activity against SETVI ([5]; application rate 1000 g/ha): very good (a very good herbicidal activity is given at values of at least 85)
- herbicidal activity against APESV ([8]; application rate 1000 g/ha): very good (a very good herbicidal activity is given at values of at least 85)
- herbicidal activity against AVEFA [11]: very good (a very good herbicidal activity is given at values of at least 85)
